Common to all, as to test: NCI anticancer screen, dose series, 48 h
The subject of assay [1] is COLO 205 colon.
In assay [2] the test system is HCT-116 colon.
Assay [3] deals with HCT-15 colon.
For assay [4], the system named is IGROV1 ovarian.
The test system of assay [5] is K-562 leukemia.
Assay [6] deals with U251 CNS.
The test system of assay [7] is DU-145 prostate.
The test system of assay [8] is NCI/ADR-RES ovarian.
The test system of assay [9] is UO-31 renal.
The subject of assay [10] is OVCAR-4 ovarian.

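A five-concentration, 48-hour dose response in 96-well plates underlies each endpoint, interpolated linearly between surrounding concentrations. GI50 marks 50% less growth. Definition used: TGI = concentration required for complete inhibition of growth.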 Where only a bound is given, the exact number is not on record here.

As to `C=C1CN2CCc3c([nH]c4ccccc34)C2CC1CC(=O)N(C)C` (centres undefined), the TGI in [1], in assay [2], in assay [3], in [4], in [5] and in assay [6] was more than 309 µM in each case.

In the case of `COc1cc(N(CCCl)CCCl)ccc1/C=N\NC(=O)c1cccnc1`, the GI50 is 13.5 µM in assay [1]; 24.6 µM in [7]; 26 µM in [2]; 27.2 µM in [3]; 36 µM in assay [4]; 36.6 µM in assay [5]. Further, the figures for the GI50 in [8], in [6] and in assay [9] were 24.9 µM, 23.8 µM and 23.8 µM, respectively. Moreover, the TGI in assay [1], in [7], in assay [2], in assay [3], in assay [4] and in [5] was more than 100 µM in each case. For the same compound, the TGI in assay [8] was more than 100 µM; in assay [6] it was more than 100 µM; in [9], 79.1 µM.

Turning to `COC(=O)C1=CCC2c3[nH]c4ccccc4c3CCN2C1` (centres undefined), the TGI in assay [1], in [2], in assay [3], in assay [4], in [5] and in assay [6] was more than 354 µM each time.

For the compound `Nc1ccc(C2SCC(=O)N2NS(=O)(=O)c2cccc(C(=O)O)c2)cc1` (centres undefined), the TGI in assay [1], in assay [7], in assay [2], in [3], in assay [4] and in [5] was more than 100 µM each time. The TGI in assay [6] and in [9] was more than 100 µM throughout.

As to `CSC1=Nc2ccccc2N=C(c2ccccc2)C1`, the TGI is 51.8 µM in assay [1]; 45.6 µM in assay [2]; more than 100 µM in assay [3]; more than 100 µM in assay [4]; more than 100 µM in assay [5]; more than 100 µM in assay [10]. Also, the TGI in [6] and in [9] was more than 100 µM in each case.

For `Cn1c(=S)[nH]c(N)c(Cc2ccccc2)c1=O`, the TGI in [1] was more than 100 µM; in [7], more than 100 µM; in [2] it was more than 100 µM; in assay [3] it was more than 100 µM; in [4] it was 68.4 µM; in assay [5], more than 100 µM. Moreover, the TGI in assay [8], in [10] and in assay [6] was more than 100 µM throughout.

Consider `Cn1c(=O)cc(Nc2ccc(N)cc2)[nH]c1=O`, for which the TGI in [1], in assay [2], in assay [3], in assay [4], in [5] and in assay [8] was more than 100 µM each time. The TGI in [10], in [6] and in [9] was more than 100 µM in each case.

Consider `CC(N)C(C)c1ccccc1` (centres undefined), for which the TGI in assay [1], in [2], in assay [3], in assay [4], in assay [5] and in assay [10] was more than 100 µM in each case. The TGI in assay [6] and in assay [9] was more than 100 µM in each case.

`Cn1c(=O)n(C2(C)CSC2)c2ccccc21`: the TGI in assay [1], in assay [2], in [3], in assay [4], in assay [5] and in [10] was more than 100 µM in each case. Moreover, the TGI in assay [6] and in assay [9] was more than 100 µM throughout.

For the compound `O=c1oc2ccccc2n1P(=O)(Oc1ccc(Cl)cc1)n1c(=O)oc2ccccc21`, the TGI in [1], in [2], in [4], in [5], in assay [10] and in [6] was more than 100 µM each time. Moreover, the TGI in assay [9] was more than 100 µM.

Regarding `CCCCCCCCCCCCc1ccsc1-c1ccc(-c2ccc(-c3sccc3CCCCCCCCCCCC)s2)s1`, the TGI in [1], in [7], in [2], in assay [3], in [4] and in [5] was more than 100 µM throughout. For the same compound, the TGI in assay [8], in assay [6] and in assay [9] was more than 100 µM throughout.

For the compound `CC#CC#C/C=C1\C=CC2(OC=CC2O)O1` (centres undefined), the TGI in [1] is 6.83 µM; in assay [2] it was 22.9 µM; in assay [3] it was more than 23.3 µM; in assay [4], more than 23.3 µM; in [5], more than 23.3 µM; in assay [10], more than 23.3 µM. Further, the TGI in assay [6] and in assay [9] was more than 23.3 µM in each case.

As for `CC1CCc2c(sc3ncnc(N/N=C/c4ccc(Cl)cc4)c23)C1` (centres undefined), the TGI in assay [1] is more than 100 µM; in [2], more than 100 µM; in [3], more than 100 µM; in assay [4], more than 100 µM; in [5] it was 48.1 µM; in assay [6], more than 100 µM. Besides, the TGI in [9] was 29.7 µM.

As to `Cc1c(C#N)c2nc3ccccc3n2c(=O)/c1=C/Nc1ccc(Cl)cc1`, the TGI in assay [1], in assay [2], in assay [3], in [4], in assay [5] and in assay [8] was more than 100 µM throughout. The TGI in assay [10] was more than 100 µM; in assay [6], 24.6 µM; in assay [9], 70.9 µM.

In the case of `O=C(O)c1ccc(Nc2cnc3cc(C(F)(F)F)ccc3n2)cc1`, the TGI in [1] is more than 100 µM; in [7] it was more than 100 µM; in assay [2], more than 100 µM; in assay [3] it was 83.5 µM; in assay [4], more than 100 µM; in assay [5] it was more than 100 µM. Also, the TGI in [8], in assay [6] and in [9] was more than 100 µM each time.

(Values after PubChem BioAssay (NCI).)
